According to paper PMC7377239, “Cardiovascular Effects of Polychlorinated Biphenyls and Their Major Metabolites” (Environmental Health Perspectives, 2020):
Like-named read-outs stand apart in the source and are kept apart here.

Key:
[1] = tested on: iCell endothelial cells (human iPSC-derived ECs); test: High-content imaging cytotoxicity in iCell endothelial cells, 24 h; format: cell-based; conditions: for viability at 0.01 µM / activity at 0.01 µM / viability at 0.1 µM / activity at 0.1 µM / viability at 1 µM / activity at 1 µM / viability at 10 µM / activity at 10 µM / viability at 100 µM / activity at 100 µM / minimal effective concentration: Homo sapiens, Endothelial cell, 24 hr; for viability at 0.1 µM / activity at 0.1 µM: 0.10 µM
Outline: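 Readouts were vehicle-normalised and fitted to a four-parameter logistic model. POD was set at one SD beyond 0.5% DMSO control means, and 100 µM was assigned when no response was seen. Cells were monolayers of iCell endothelial cells imaged after 24 h compound exposure using nuclear, mitochondrial and calcein dyes.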

[2] = tested on: HUVECs; test: Tube formation (tubulogenesis) assay in HUVECs, 18 h; format: cell-based, human; conditions: Homo sapiens, HUVEC, 18 h; for activity at 0.1 µM: 0.10 µM
Outline: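 HUVECs (passage 1–5) seeded on reduced-growth-factor basement membrane and exposed to compounds overnight at 37°C, 5% CO2, in 2× maintenance medium with 12.5 ng/mL VEGF; 0.5% DMSO vehicle. Calcein AM-stained tube networks imaged and analysed; vehicle-normalized readouts fit to four-parameter logistic, POD set at one SD of vehicle means.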

[3] = iPSC-EC, 0.00 µM control = 100.00, read-out: endo.cyto.24hr
[4] = iPSC-EC, 0.00 µM control = 100.00, read-out: endo.mito.24hr
[5] = iPSC-EC, 0.00 µM control = 100.00, read-out: endo.mitoint.24hr
[6] = iPSC-EC, 0.00 µM control = 100.00, read-out: endo.nma.24hr
[7] = iPSC-EC, 0.00 µM control = 100.00, read-out: endo.tc.24hrs
[8] = HUVECs, 0.00 µM = 100.00, read-out: huvec.mtl.18hr
[9] = HUVECs, 0.00 µM = 100.00, read-out: huvec.tlps.18hr
[10] = HUVECs, 0.00 µM = 100.00, read-out: huvec.tta.18hr
[11] = HUVECs, 0.00 µM = 100.00, read-out: huvec.ttl.18hr
[12] = endothelial cells (endo), cyto, read-out: POD endo.cyto.24hr
[13] = endothelial cells (endo), mito, read-out: POD endo.mito.24hr
[14] = endothelial cells (endo), mitoint, read-out: POD endo.mitoint.24hr
[15] = endothelial cells (endo), nma, read-out: POD endo.nma.24hr
[16] = endothelial cells (endo), tc, read-out: POD endo.tc.24hr
[17] = tube formation mtl, read-out: POD huvec.mtl.18hr
[18] = tube formation tlps, read-out: POD huvec.tlps.18hr
[19] = tube formation tta, read-out: POD huvec.tta.18hr
[20] = tube formation ttl, read-out: POD huvec.ttl.18hr

SMILES: Clc1ccc(-c2ccccc2)cc1 [PCB3]
- viability at 0.01 µM [1, 3]: 101%
- activity at 0.01 µM [1, 4]: 101%
- activity at 0.01 µM [1, 5]: 126%
- activity at 0.01 µM [1, 6]: 97.7%
- viability at 0.01 µM [1, 7]: 101%
- viability at 0.1 µM [1, 3]: 100%
- activity at 0.1 µM [1, 4]: 101%
- activity at 0.1 µM [1, 5]: 109%
- activity at 0.1 µM [1, 6]: 98%
- viability at 0.1 µM [1, 7]: 100%
- viability at 1 µM [1, 3]: 107%
- activity at 1 µM [1, 4]: 107%
- activity at 1 µM [1, 5]: 104%
- activity at 1 µM [1, 6]: 95.8%
- viability at 1 µM [1, 7]: 107%
- viability at 10 µM [1, 3]: 106%
- activity at 10 µM [1, 4]: 105%
- activity at 10 µM [1, 5]: 100%
- activity at 10 µM [1, 6]: 94.8%
- viability at 10 µM [1, 7]: 106%
- viability at 100 µM [1, 3]: 105%
- activity at 100 µM [1, 4]: 106%
- activity at 100 µM [1, 5]: 102%
- activity at 100 µM [1, 6]: 95.7%
- viability at 100 µM [1, 7]: 105%
- minimal effective concentration ([1]; iPSC-EC, top concentration 100.00 µM, read-out: endo.cyto.24hr POD): 100 µM
- minimal effective concentration ([1]; iPSC-EC, top concentration 100.00 µM, read-out: endo.mito.24hr POD): 100 µM
- minimal effective concentration ([1]; iPSC-EC, top concentration 100.00 µM, read-out: endo.mitoint.24hr POD): 100 µM
- minimal effective concentration ([1]; iPSC-EC, top concentration 100.00 µM, read-out: endo.nma.24hr POD): 100 µM
- minimal effective concentration ([1]; iPSC-EC, top concentration 100.00 µM, read-out: endo.tc.24hrs POD): 100 µM
- activity at 0.01 µM [2, 8]: 96.2%
- activity at 0.01 µM [2, 9]: 59.5%
- activity at 0.01 µM [2, 10]: 68%
- activity at 0.01 µM [2, 11]: 71.6%
- activity at 0.1 µM [2, 8]: 97.7%
- activity at 0.1 µM [2, 9]: 91.8%
- activity at 0.1 µM [2, 10]: 96.2%
- activity at 0.1 µM [2, 11]: 104%
- activity at 1 µM [2, 8]: 87%
- activity at 1 µM [2, 9]: 74.7%
- activity at 1 µM [2, 10]: 76.6%
- activity at 1 µM [2, 11]: 81.5%
- activity at 10 µM [2, 8]: 96.7%
- activity at 10 µM [2, 9]: 74.2%
- activity at 10 µM [2, 10]: 62%
- activity at 10 µM [2, 11]: 66.4%
- activity at 100 µM [2, 8]: 70.8%
- activity at 100 µM [2, 9]: 39.1%
- activity at 100 µM [2, 10]: 26%
- activity at 100 µM [2, 11]: 28%
- minimal effective concentration ([2]; HUVECs, top concentration 100.00 µM, read-out: huvec.mtl.18hr POD): 25.3 µM
- minimal effective concentration ([2]; HUVECs, top concentration 100.00 µM, read-out: huvec.tlps.18hr POD): 100 µM
- minimal effective concentration ([2]; HUVECs, top concentration 100.00 µM, read-out: huvec.tta.18hr POD): 0.67 µM
- minimal effective concentration ([2]; HUVECs, top concentration 100.00 µM, read-out: huvec.ttl.18hr POD): 0.7 µM

SMILES: Oc1ccc(-c2ccc(Cl)cc2)cc1 [4'-OH-PCB 3]
- minimal effective concentration [1, 12]: 41.1 µM
- minimal effective concentration [1, 13]: 41.1 µM
- minimal effective concentration [1, 14]: 100 µM
- minimal effective concentration [1, 15]: 100 µM
- minimal effective concentration [1, 16]: 52 µM
- minimal effective concentration [2, 17]: 1.21 µM
- minimal effective concentration [2, 18]: 0.51 µM
- minimal effective concentration [2, 19]: 5.36 µM
- minimal effective concentration [2, 20]: 5.16 µM

SMILES: Clc1ccc(-c2ccccc2)cc1 [PCB 3, 4-chlorobiphenyl]
- minimal effective concentration [1, 12]: 100 µM
- minimal effective concentration [1, 13]: 100 µM
- minimal effective concentration [1, 14]: 100 µM
- minimal effective concentration [1, 15]: 100 µM
- minimal effective concentration [1, 16]: 100 µM
- effect on cell viability in iPSC-ECs ([1]; iPSC-ECs, 0.01-100 μM): did not affect cell viability
- minimal effective concentration [2, 17]: 25.3 µM
- minimal effective concentration [2, 18]: 100 µM
- minimal effective concentration [2, 19]: 0.67 µM
- minimal effective concentration [2, 20]: 0.7 µM
